≈ marks a conversion by molar mass, not a printed value. Calls of active or inactive are those of the source. No cut-off for these calls is given here.
Key:
[1] = system: Reticulitermes speratus; assay: Insecticidal activity against Reticulitermes speratus assessed as mortality at 0.01 g/m'2 at 48 hr relative to control; format: functional
[2] = system: P388; assay: Growth inhibition of Mus musculus (mouse) P388 cells at >1.25 ug/ml after 24 hr by MTT assay; format: functional
[3] = system: Dermatophagoides farinae; assay: Acaricidal activity against Dermatophagoides farinae assessed as mortality at 1 g/m'2 after 24 hr relative to control; format: functional
[4] = system: Phomopsis obscurans; assay: Antifungal activity against Phomopsis obscurans MAFF 744018 after 15 days by agar dilution method; format: functional; conditions: Paraphomopsis obscurans, MAFF 744018, 360 h
[5] = system: Botrytis cinerea; assay: Antifungal activity against Botryotinia fuckeliana IFO 30915 after 15 days by agar dilution method; format: functional; conditions: IFO 30915, 360 h
[6] = system: Reticulitermes speratus; assay: Insecticidal activity against Reticulitermes speratus assessed as mortality at 0.1 g/m'2 at 48 hr relative to control; format: functional
[7] = system: Tyrophagus putrescentiae; assay: Acaricidal activity against Tyrophagus putrescentiae at high concentration; format: functional, organism-based
[8] = system: Reticulitermes speratus; assay: Insecticidal activity against Reticulitermes speratus assessed as mortality at 0.05 g/m'2 at 48 hr relative to control; format: functional
[9] = system: Dermatophagoides farinae; assay: Acaricidal activity against Dermatophagoides farinae assessed as mortality at 0.5 g/m'2 after 24 hr relative to control; format: functional
[10] = system: Thanatephorus cucumeris; assay: Antifungal activity against Thanatephorus cucumeris IFO 30455 after 15 days by agar dilution method; format: functional; conditions: IFO 30455, 360 h
[11] = system: Legionella pneumophila; assay: Antibacterial activity against Legionella pneumophila SG 1 after 7 days by agar dilution method; format: functional; conditions: SG 1, 168 h
[12] = system: Reticulitermes speratus; assay: Insecticidal activity against Reticulitermes speratus assessed as mortality at 0.1 g/m'2 at 24 hr relative to control; format: functional
[13] = system: Dermatophagoides farinae; assay: Acaricidal activity against Dermatophagoides farinae after 24 hr; format: functional
[14] = system: Reticulitermes speratus; assay: Insecticidal activity against Reticulitermes speratus assessed as mortality at 0.04 g/m'2 at 24 hr relative to control; format: functional
[15] = system: Reticulitermes speratus; assay: Insecticidal activity against Reticulitermes speratus assessed as mortality at 0.03 g/m'2 at 24 hr relative to control; format: functional
[16] = system: Pythium aphanidermatum; assay: Antifungal activity against Pythium aphanidermatum IFO 32440 after 15 days by agar dilution method; format: functional; conditions: IFO 32440, 360 h
[17] = system: Colletotrichum orbiculare; assay: Antifungal activity against Colletotrichum orbiculare MAFF 306518 after 15 days by agar dilution method; format: functional; conditions: MAFF 306518, 360 h
[18] = system: Reticulitermes speratus; assay: Insecticidal activity against Reticulitermes speratus assessed as mortality at 0.01 g/m'2 at 24 hr relative to control; format: functional
[19] = system: Legionella pneumophila; assay: Antibacterial activity against Legionella pneumophila SG 3 after 7 days by agar dilution method; format: functional; conditions: SG 3, 168 h
[20] = system: Dermatophagoides farinae; assay: Acaricidal activity against Dermatophagoides farinae assessed as mortality at 0.1 g/m'2 after 24 hr relative to control; format: functional
[21] = system: Reticulitermes speratus; assay: Insecticidal activity against Reticulitermes speratus at 48 hr; format: functional
[22] = system: P388; assay: Growth inhibition of Mus musculus (mouse) P388 cells at 0.63 ug/ml after 24 hr by MTT assay; format: functional; conditions: P388, 24 h, read-out: GI
[23] = system: Reticulitermes speratus; assay: Insecticidal activity against Reticulitermes speratus assessed as mortality at 0.03 g/m'2 at 48 hr relative to control; format: functional
[24] = system: Reticulitermes speratus; assay: Insecticidal activity against Reticulitermes speratus assessed as mortality at 0.02 g/m'2 at 24 hr relative to control; format: functional
[25] = system: Reticulitermes speratus; assay: Insecticidal activity against Reticulitermes speratus assessed as mortality at 0.04 g/m'2 at 48 hr relative to control; format: functional
[26] = system: P388; assay: Growth inhibition of Mus musculus (mouse) P388 cells at >1.25 ug/ml after 48 hr by MTT assay; format: functional
[27] = system: P388; assay: Growth inhibition of Mus musculus (mouse) P388 cells after 24 to 48 hr by MTT assay; format: functional, cell-based
[28] = Toxicity against ip dosed Mus musculus Slc:ddY (mouse) after 8 days; format: organism-based; conditions: in vivo
[29] = system: P388; assay: Growth inhibition of Mus musculus (mouse) P388 cells at 0.63 ug/ml after 48 hr by MTT assay; format: functional; conditions: P388, 48 h, read-out: GI
[30] = system: Dermatophagoides farinae; assay: Acaricidal activity against Dermatophagoides farinae assessed as mortality at 0.01 g/m'2 after 24 hr relative to control; format: functional
[31] = system: Colletotrichum lagenaria; assay: Antifungal activity against Colletotrichum lagenaria after 15 days by agar dilution method; format: functional; conditions: 360 h
[32] = system: Reticulitermes speratus; assay: Insecticidal activity against Reticulitermes speratus assessed as mortality at 0.05 g/m'2 at 24 hr relative to control; format: functional
[33] = system: Fusarium solani; assay: Antifungal activity against Fusarium solani IFO 9955 after 15 days by agar dilution method; format: functional; conditions: IFO 9955, 360 h
[34] = system: Reticulitermes speratus; assay: Insecticidal activity against Reticulitermes speratus assessed as mortality at 0.02 g/m'2 at 48 hr relative to control; format: functional
[35] = system: Reticulitermes speratus; assay: Insecticidal activity against Reticulitermes speratus assessed as mortality at 0.00050 g/m'2 at 24 hr relative to control; format: functional
[36] = system: Reticulitermes speratus; assay: Insecticidal activity against Reticulitermes speratus assessed as mortality at 0.00025 g/m'2 at 48 hr relative to control; format: functional
[37] = system: Reticulitermes speratus; assay: Insecticidal activity against Reticulitermes speratus assessed as mortality at 0.00050 g/m'2 at 48 hr relative to control; format: functional
[38] = system: Reticulitermes speratus; assay: Insecticidal activity against Reticulitermes speratus assessed as mortality at 0.00005 g/m'2 at 24 hr relative to control; format: functional
[39] = system: Reticulitermes speratus; assay: Insecticidal activity against Reticulitermes speratus assessed as mortality at 0.00010 g/m'2 at 24 hr relative to control; format: functional
[40] = system: Reticulitermes speratus; assay: Insecticidal activity against Reticulitermes speratus assessed as mortality at 0.00005 g/m'2 at 48 hr relative to control; format: functional
[41] = system: Reticulitermes speratus; assay: Insecticidal activity against Reticulitermes speratus assessed as mortality at 0.00025 g/m'2 at 24 hr relative to control; format: functional
[42] = system: Reticulitermes speratus; assay: Insecticidal activity against Reticulitermes speratus assessed as mortality at 0.00001 g/m'2 at 24 hr relative to control; format: functional
[43] = system: Reticulitermes speratus; assay: Insecticidal activity against Reticulitermes speratus assessed as mortality at 0.00010 g/m'2 at 48 hr relative to control; format: functional
[44] = system: Dermatophagoides farinae; assay: Acaricidal activity against Dermatophagoides farinae assessed as mortality at 0.2 g/m'2 after 24 hr relative to control; format: functional
[45] = system: K562; assay: Cytotoxicity against Homo sapiens (human) K562; format: functional, cell-based
[46] = system: HL-60; assay: Cytotoxicity against Homo sapiens (human) HL60; format: functional, cell-based
[47] = system: Dermatophagoides farinae; assay: Acaricidal activity against Dermatophagoides farinae assessed as mortality at 0.02 g/m'2 after 24 hr relative to control; format: functional
[48] = Cytotoxicity against Mus musculus (mouse) RL male 1; format: functional
[49] = system: Colon 26; assay: Cytotoxicity against Mus musculus (mouse) colon 26 cells; format: functional
[50] = system: Dermatophagoides farinae; assay: Acaricidal activity against Dermatophagoides farinae assessed as mortality at 0.05 g/m'2 after 24 hr relative to control; format: functional
[51] = system: MDCK; assay: Cytotoxicity against MDCK cells; format: functional; conditions: Canis lupus familiaris
[52] = Cytotoxicity against Mus musculus (mouse) MH134; format: functional
[53] = Cytotoxicity against Homo sapiens (human) KATO III; format: functional

## CC(C)c1ccccc(=O)c1O [ALPHA-THUJAPLICIN]
[1]
  mortality: 0%
[2]
  growth inhibition (GI): 98%
[3]
  mortality: 69.5%
[4]
  MIC: 12 µg/mL (≈ 73.1 µM)
[5]
  MIC: 25 µg/mL (≈ 152 µM)
[6]
  mortality: 100%
[7]
  Activity: inactive
[8]
  mortality: 100%
[9]
  mortality: 38.4%
[10]
  MIC: 12 µg/mL (≈ 73.1 µM)
[11]
  MIC: 12.5 µg/mL (≈ 76.1 µM)
[12]
  mortality: 100%
[13]
  LC50: 0.66 g/m2
[14]
  mortality: 13.3%
[15]
  mortality: 0%
[16]
  MIC: 12 µg/mL (≈ 73.1 µM)
[17]
  MIC: 12 µg/mL (≈ 73.1 µM)
[18]
  mortality: 0%
[19]
  MIC: 50 µg/mL (≈ 304 µM)
[20]
  mortality: 0%
[21]
  LC50: 0.02 g/m2
[22]
  inhibition of growth at 0.63 µg/mL: 78%
[23]
  mortality: 100%
[24]
  mortality: 0%
[25]
  mortality: 100%
[26]
  growth inhibition (GI): 100%
[27]
  growth inhibition (GI): Dose-dependent effect
[28]
  LD50 at 192 h: 256 mg/kg
[29]
  inhibition of growth at 0.63 µg/mL: 68%
[30]
  mortality: 1.1%
[31]
  MIC: 12 µg/mL (≈ 73.1 µM)
[32]
  mortality: 93.3%
[33]
  MIC: 50 µg/mL (≈ 304 µM)
[34]
  mortality: 0%

## CCOP(=S)(OCC)Oc1nc(Cl)c(Cl)cc1Cl [CHLORPYRIFOS]
[35]
  mortality: 100%
[36]
  mortality: 100%
[37]
  mortality: 100%
[38]
  mortality: 10%
[39]
  mortality: 25%
[40]
  mortality: 40%
[41]
  mortality: 60%
[21]
  LC50: 0.00016 g/m2
[42]
  mortality: 0%
[43]
  mortality: 75%

## CCN(CC)C(=O)c1cccc(C)c1 [DIETHYLTOLUAMIDE]
[3]
  mortality: 45.5%
[9]
  mortality: 20.5%
[13]
  LC50: 0.79 g/m2
[44]
  mortality: 7.2%
[20]
  mortality: 0%

## CC(C)c1cccc(=O)c(O)c1 [HINOKITIOL]
[1]
  mortality: 0%
[45]
  IC50: 0.3 µg/mL (≈ 1.83 µM)
[3]
  mortality: 100%
[4]
  MIC: 12 µg/mL (≈ 73.1 µM)
[5]
  MIC: 50 µg/mL (≈ 304 µM)
[6]
  mortality: 100%
[8]
  mortality: 100%
[10]
  MIC: 12 µg/mL (≈ 73.1 µM)
[11]
  MIC: 6.25 µg/mL (≈ 38.1 µM)
[12]
  mortality: 100%
[14]
  mortality: 100%
[46]
  IC50: 0.3 µg/mL (≈ 1.83 µM)
[15]
  mortality: 13.3%
[16]
  MIC: 12 µg/mL (≈ 73.1 µM)
[17]
  MIC: 25 µg/mL (≈ 152 µM)
[18]
  mortality: 0%
[19]
  MIC: 25 µg/mL (≈ 152 µM)
[20]
  mortality: 99%
[21]
  LC50: 0.03 g/m2
[47]
  mortality: 2.6%
[48]
  IC50: 0.3 µg/mL (≈ 1.83 µM)
[23]
  mortality: 100%
[24]
  mortality: 0%
[49]
  MIC: 10 µg/mL (≈ 60.9 µM)
[25]
  mortality: 100%
[50]
  mortality: 11.9%
[51]
  MIC: 10 µg/mL (≈ 60.9 µM)
[30]
  mortality: 0%
[31]
  MIC: 25 µg/mL (≈ 152 µM)
[52]
  IC50: 0.3 µg/mL (≈ 1.83 µM)
[32]
  mortality: 100%
[33]
  MIC: 50 µg/mL (≈ 304 µM)
[34]
  mortality: 0%
[53]
  IC50: 0.3 µg/mL (≈ 1.83 µM)

## O=c1cccccc1O [TROPOLONE]
[45]
  IC50: 0.3 µg/mL (≈ 2.46 µM)
[46]
  IC50: 0.3 µg/mL (≈ 2.46 µM)
[48]
  IC50: 0.3 µg/mL (≈ 2.46 µM)
[52]
  IC50: 0.3 µg/mL (≈ 2.46 µM)
[53]
  IC50: 0.3 µg/mL (≈ 2.46 µM)

## CC[C@]1(O)C[C@@H]2CN(CCc3c([nH]c4ccccc34)[C@@](C(=O)OC)(c3cc4c(cc3OC)N(C)[C@H]3[C@@](O)(C(=O)OC)[C@H](OC(C)=O)[C@]5(CC)C=CCN6CC[C@]43[C@@H]65)C2)C1 [VINBLASTINE]
[22]
  inhibition of growth at 0.63 µg/mL: 84%
